Laboratory results taken from the NIST ThermoML archive (doi:10.1016/j.jct.2014.09.009).
Numbers after ± are expanded uncertainties.

Assays:
[1] = refractive index (Na D-line) (dimensionless); settings: 298.15 K; 101.33 kPa; Liquid; Standard Abbe refractometry
[2] = 298.15 K; 101.33 kPa; Liquid; Vibrating tube method

SMILES: COS(=O)(=O)[O-].Cn1cc[n+](C)c1 [1,3-dimethylimidazolium methylsulfate]
- refractive index [1]: 1.48276 ± 0.00069
- mass density [2]: 1327.3 ± 3.8 kg/m3

SMILES: CCCCn1cc[n+](C)c1.COS(=O)(=O)[O-] [1-butyl-3-methylimidazolium methyl sulfate]
- refractive index [1]: 1.47948 ± 0.00053
- mass density [2]: 1212.3 ± 2.5 kg/m3

SMILES: CCn1cc[n+](C)c1.COS(=O)(=O)[O-] [1-ethyl-3-methylimidazolium methylsulfate]
- refractive index [1]: 1.479 ± 0.0005
- mass density [2]: 1277.4 ± 2.6 kg/m3

SMILES: CCCCCCCCCCCC [dodecane]
- refractive index [1]: 1.41992 ± 0.0004
- mass density [2]: 745.2 ± 2.1 kg/m3

SMILES: CCO [ethanol]
- refractive index [1]: 1.35932 ± 0.00035
- mass density [2]: 785.1 ± 2.1 kg/m3

SMILES: CCOC(C)=O [ethyl acetate]
- refractive index [1]: 1.36975 ± 0.00035
- mass density [2]: 894.5 ± 2.1 kg/m3

SMILES: CC(C)O [propan-2-ol]
- refractive index [1]: 1.37499 ± 0.00035
- mass density [2]: 780.9 ± 2.1 kg/m3
